Biological target: T1, rat mGluR5 receptors (Rattus norvegicus, UniProt P31424)
T1 construct: rat cerebro-cortical membrane preparation was used; from tissue; host or cells: rat cerebral cortex membranes
Assay: mGluR5 receptor binding test, rat cerebro-cortical membrane preparation, [3H]-M-MPEP
Conditions: affinity for rat mGluR5 receptors; [3H]-M-MPEP (2 nM) radioligand
In short: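 Radioligand binding used rat cerebro-cortical membranes with 2 nM [3H]-M-MPEP. Nonspecific binding was defined with 10 μM M-MPEP. The method follows a modification of a published procedure.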

T1 sequence (P31424 21-1203): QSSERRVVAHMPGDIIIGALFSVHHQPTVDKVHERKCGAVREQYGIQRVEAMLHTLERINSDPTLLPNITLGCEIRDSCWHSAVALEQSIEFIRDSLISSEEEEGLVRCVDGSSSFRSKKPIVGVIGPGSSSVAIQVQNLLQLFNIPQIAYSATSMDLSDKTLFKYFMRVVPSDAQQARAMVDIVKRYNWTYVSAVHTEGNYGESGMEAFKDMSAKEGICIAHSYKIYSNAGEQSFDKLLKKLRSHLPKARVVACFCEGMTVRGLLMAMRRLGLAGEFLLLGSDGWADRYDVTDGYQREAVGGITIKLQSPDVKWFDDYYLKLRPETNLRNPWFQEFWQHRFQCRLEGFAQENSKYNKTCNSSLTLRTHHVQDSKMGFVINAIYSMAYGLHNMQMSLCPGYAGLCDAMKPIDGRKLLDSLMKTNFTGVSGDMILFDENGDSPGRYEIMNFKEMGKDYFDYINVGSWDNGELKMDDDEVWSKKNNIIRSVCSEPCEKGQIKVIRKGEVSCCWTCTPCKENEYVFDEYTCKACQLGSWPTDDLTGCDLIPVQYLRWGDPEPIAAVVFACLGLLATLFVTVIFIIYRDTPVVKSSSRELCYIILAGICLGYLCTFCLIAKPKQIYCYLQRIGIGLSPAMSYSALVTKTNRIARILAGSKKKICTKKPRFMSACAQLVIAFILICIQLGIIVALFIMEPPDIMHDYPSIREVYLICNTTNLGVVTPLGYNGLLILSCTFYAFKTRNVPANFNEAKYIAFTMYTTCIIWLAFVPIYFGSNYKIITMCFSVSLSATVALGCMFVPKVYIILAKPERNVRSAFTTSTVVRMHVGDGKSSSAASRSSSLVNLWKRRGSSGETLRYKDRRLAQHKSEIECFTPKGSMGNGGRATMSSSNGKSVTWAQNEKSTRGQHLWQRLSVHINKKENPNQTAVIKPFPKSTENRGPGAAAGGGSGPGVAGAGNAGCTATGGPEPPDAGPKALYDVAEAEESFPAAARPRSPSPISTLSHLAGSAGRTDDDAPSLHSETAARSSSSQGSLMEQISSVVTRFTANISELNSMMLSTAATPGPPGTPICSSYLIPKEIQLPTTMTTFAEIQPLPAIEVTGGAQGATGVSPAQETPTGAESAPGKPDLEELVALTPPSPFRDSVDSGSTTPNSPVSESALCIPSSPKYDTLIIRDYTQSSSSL

SMILES | Ki [nM]
CC1CCN(c2c(S(=O)(=O)c3cccc(Cl)c3)cnc3cc(Cl)ccc23)CC1 [Compound 201] | < 200
CC1CCN(c2c(S(=O)(=O)c3ccc(Cl)c(Cl)c3)cnc3cc(Cl)ccc23)CC1 [Compound 202] | < 200
Cc1ccc(S(=O)(=O)c2cnc3cc(Cl)ccc3c2N2CCC(C)CC2)cc1F [Compound 203] | < 200
CC1CCN(c2c(S(=O)(=O)c3ccc(C#N)cc3)cnc3cc(Cl)ccc23)CC1 [Compound 204] | 200 to 500
Cc1ccc(S(=O)(=O)c2cnc3cc(Cl)ccc3c2N2CCC(C)CC2)cc1Cl [Compound 205] | < 200
CC1CCN(c2c(S(=O)(=O)c3ccc(F)c(F)c3)cnc3cc(Cl)ccc23)CC1 [Compound 206] | < 200
CC1CCN(c2c(S(=O)(=O)c3ccc(F)c(Cl)c3)cnc3cc(Cl)ccc23)CC1 [Compound 207] | < 200
CC1CCN(c2c(S(=O)(=O)c3cc(Cl)cc(Cl)c3)cnc3ccc(Cl)cc23)CC1 [Compound 208] | < 200
CC1CCN(c2c(S(=O)(=O)c3cc(F)cc(F)c3)cnc3ccc(Cl)cc23)CC1 [Compound 209] | < 200
CC1CCN(c2c(S(=O)(=O)c3cccc(C#N)c3)cnc3ccc(Cl)cc23)CC1 [Compound 210] | < 200
Cc1ccc(S(=O)(=O)c2cnc3ccc(Cl)cc3c2N2CCC(C)CC2)cc1 [Compound 211] | < 200
CC1CCN(c2c(S(=O)(=O)c3ccc(F)cc3)cnc3ccc(Cl)cc23)CC1 [Compound 212] | < 200
CC1CCN(c2c(S(=O)(=O)c3ccc(Cl)cc3)cnc3ccc(Cl)cc23)CC1 [Compound 213] | < 200
CC1CCN(c2c(S(=O)(=O)c3cccc(F)c3)cnc3ccc(Cl)cc23)CC1 [Compound 214] | 200 to 500
COc1cccc(S(=O)(=O)c2cnc3ccc(Cl)cc3c2N2CCC(C)CC2)c1 [Compound 215] | < 200
CC1CCN(c2c(S(=O)(=O)c3cccc(Cl)c3)cnc3ccc(Cl)cc23)CC1 [Compound 216] | > 500
Cc1ccc(S(=O)(=O)c2cnc3ccc(Cl)cc3c2N2CCC(C)CC2)cc1F [Compound 217] | 200 to 500
CC1CCN(c2c(S(=O)(=O)c3ccc(C#N)cc3)cnc3ccc(Cl)cc23)CC1 [Compound 218] | > 500
Cc1ccc(S(=O)(=O)c2cnc3ccc(Cl)cc3c2N2CCC(C)CC2)cc1Cl [Compound 219] | 200 to 500
Cc1ccc(S(=O)(=O)c2cnc3ccc(Cl)cc3c2N2CCC(C)CC2)cc1C [Compound 220] | < 200
COc1ccc(S(=O)(=O)c2cnc3ccc(Cl)cc3c2N2CCC(C)CC2)cc1Cl [Compound 221] | > 500
CC1CCN(c2c(S(=O)(=O)c3ccc(F)c(F)c3)cnc3ccc(Cl)cc23)CC1 [Compound 222] | 200 to 500
CC1CCN(c2c(S(=O)(=O)c3ccc(Cl)c(Cl)c3)cnc3ccc(Cl)cc23)CC1 [Compound 223] | < 200
Cc1cc(C)cc(S(=O)(=O)c2cnc3ccc(Cl)cc3c2N2CCC(C)CC2)c1 [Compound 224] | > 500
COc1ccc(S(=O)(=O)c2cnc3ccc(Cl)cc3c2N2CCC(C)CC2)cc1OC [Compound 225] | 200 to 500
CC1CCN(c2c(S(=O)(=O)c3cc(Cl)cc(Cl)c3)cnc3c(F)cccc23)CC1 [Compound 226] | < 200

SMILES | Ki [nM]
CC1CCN(c2c(S(=O)(=O)c3cc(F)cc(F)c3)cnc3c(F)cccc23)CC1 [Compound 227] | > 500
CC1CCN(c2c(S(=O)(=O)c3ccc(F)cc3)cnc3c(F)cccc23)CC1 [Compound 228] | > 500
COc1ccc(S(=O)(=O)c2cnc3c(F)cccc3c2N2CCC(C)CC2)cc1 [Compound 229] | 200 to 500
CC1CCN(c2c(S(=O)(=O)c3ccccc3)cnc3c(F)cccc23)CC1 [Compound 230] | > 500
CC1CCN(c2c(S(=O)(=O)c3ccc(Cl)cc3)cnc3c(F)cccc23)CC1 [Compound 231] | < 200
CC1CCN(c2c(S(=O)(=O)c3cccc(F)c3)cnc3c(F)cccc23)CC1 [Compound 232] | 200 to 500
Cc1ccc(S(=O)(=O)c2cnc3c(F)cccc3c2N2CCC(C)CC2)cc1F [Compound 233] | < 200
CC1CCN(c2c(S(=O)(=O)c3ccc(C#N)cc3)cnc3c(F)cccc23)CC1 [Compound 234] | < 200
Cc1ccc(S(=O)(=O)c2cnc3c(F)cccc3c2N2CCC(C)CC2)cc1 [Compound 235] | < 200
CC1CCN(c2c(S(=O)(=O)c3ccc(Cl)c(Cl)c3)cnc3c(F)cccc23)CC1 [Compound 236] | < 200
CC1CCN(c2c(S(=O)(=O)c3ccc(F)c(Cl)c3)cnc3c(F)cccc23)CC1 [Compound 237] | < 200
CC1CCN(c2c(S(=O)(=O)c3ccc(F)c(F)c3)cnc3c(F)cccc23)CC1 [Compound 238] | < 200
COc1ccc2ncc(S(=O)(=O)c3cc(Cl)cc(Cl)c3)c(N3CCC(C)CC3)c2c1 [Compound 239] | < 200
COc1ccc2ncc(S(=O)(=O)c3cc(F)cc(F)c3)c(N3CCC(C)CC3)c2c1 [Compound 240] | > 500
COc1ccc2ncc(S(=O)(=O)c3ccc(F)cc3)c(N3CCC(C)CC3)c2c1 [Compound 241] | > 500
COc1ccc2ncc(S(=O)(=O)c3ccc(OC)c(OC)c3)c(N3CCC(C)CC3)c2c1 [Compound 242] | > 500
COc1ccc2ncc(S(=O)(=O)c3cccc(F)c3)c(N3CCC(C)CC3)c2c1 [Compound 243] | 200 to 500
COc1cccc(S(=O)(=O)c2cnc3ccc(OC)cc3c2N2CCC(C)CC2)c1 [Compound 244] | > 500
COc1ccc2ncc(S(=O)(=O)c3ccc(OC)c(Cl)c3)c(N3CCC(C)CC3)c2c1 [Compound 245] | > 500
COc1ccc2ncc(S(=O)(=O)c3cccc(Cl)c3)c(N3CCC(C)CC3)c2c1 [Compound 246] | > 500
COc1ccc2ncc(S(=O)(=O)c3ccc(C)c(F)c3)c(N3CCC(C)CC3)c2c1 [Compound 247] | 200 to 500
COc1ccc2ncc(S(=O)(=O)c3ccc(C)c(Cl)c3)c(N3CCC(C)CC3)c2c1 [Compound 248] | < 200
COc1ccc2ncc(S(=O)(=O)c3ccc(Cl)c(Cl)c3)c(N3CCC(C)CC3)c2c1 [Compound 249] | < 200
COc1ccc2ncc(S(=O)(=O)c3ccc(C)c(C)c3)c(N3CCC(C)CC3)c2c1 [Compound 250] | 200 to 500
CC1CCN(c2c(S(=O)(=O)c3ccc(F)cc3)cnc3ccc(C#N)cc23)CC1 [Compound 252] | 200 to 500

Now from value to compound:

Ki [nM] | SMILES
200 to 500 | CC1CCN(c2c(S(=O)(=O)c3ccc(Cl)cc3)cnc3c(Cl)ccc(Cl)c23)CC1 [Compound 253]
< 200 | Cc1ccc2ncc(S(=O)(=O)c3ccccc3)c(N3CCOCC3)c2c1 [Compound 254]
> 500 | Cc1ccc2ncc(S(=O)(=O)c3cc(F)cc(F)c3)c(N3CCOCC3)c2c1 [Compound 255]
200 to 500 | Cc1ccc2ncc(S(=O)(=O)c3cccc(C#N)c3)c(N3CCOCC3)c2c1 [Compound 256]
> 500 | Cc1ccc2ncc(S(=O)(=O)c3ccc(F)cc3)c(N3CCOCC3)c2c1 [Compound 257]
> 500 | COc1ccc(S(=O)(=O)c2cnc3ccc(C)cc3c2N2CCOCC2)cc1 [Compound 258]
> 500 | Cc1ccc2ncc(S(=O)(=O)c3cccc(F)c3)c(N3CCOCC3)c2c1 [Compound 259]
200 to 500 | COc1cccc(S(=O)(=O)c2cnc3ccc(C)cc3c2N2CCOCC2)c1 [Compound 260]
200 to 500 | COc1ccc(S(=O)(=O)c2cnc3ccc(C)cc3c2N2CCOCC2)cc1Cl [Compound 261]
200 to 500 | Cc1ccc2ncc(S(=O)(=O)c3ccc(Cl)c(Cl)c3)c(N3CCOCC3)c2c1 [Compound 262]
> 500 | Cc1ccc2ncc(S(=O)(=O)c3cccc(Cl)c3)c(N3CCOCC3)c2c1 [Compound 263]
200 to 500 | Cc1ccc2ncc(S(=O)(=O)c3cc(Cl)cc(Cl)c3)c(N3CCOCC3)c2c1 [Compound 264]
> 500 | Cc1ccc2ncc(S(=O)(=O)c3ccc(C#N)cc3)c(N3CCOCC3)c2c1 [Compound 265]
200 to 500 | Cc1ccc2ncc(S(=O)(=O)c3ccc(C)c(Cl)c3)c(N3CCOCC3)c2c1 [Compound 266]
> 500 | Cc1ccc2ncc(S(=O)(=O)c3ccc(C)c(F)c3)c(N3CCOCC3)c2c1 [Compound 267]
> 500 | Cc1ccc2ncc(S(=O)(=O)c3ccc(F)c(F)c3)c(N3CCOCC3)c2c1 [Compound 268]
200 to 500 | COc1ccc2ncc(S(=O)(=O)c3ccccc3)c(N3CCOCC3)c2c1 [Compound 269]
< 200 | COc1ccc2ncc(S(=O)(=O)c3ccc(Cl)cc3)c(N3CCOCC3)c2c1 [Compound 270]
> 500 | COc1ccc2ncc(S(=O)(=O)c3cc(Cl)cc(Cl)c3)c(N3CCOCC3)c2c1 [Compound 271]
> 500 | COc1ccc2ncc(S(=O)(=O)c3cc(F)cc(F)c3)c(N3CCOCC3)c2c1 [Compound 272]
> 500 | COc1ccc2ncc(S(=O)(=O)c3cccc(C#N)c3)c(N3CCOCC3)c2c1 [Compound 273]
> 500 | COc1ccc2ncc(S(=O)(=O)c3cccc(Cl)c3)c(N3CCOCC3)c2c1 [Compound 274]
> 500 | COc1ccc2ncc(S(=O)(=O)c3ccc(F)cc3)c(N3CCOCC3)c2c1 [Compound 275]
> 500 | COc1ccc2ncc(S(=O)(=O)c3ccc(C)c(Cl)c3)c(N3CCOCC3)c2c1 [Compound 276]
> 500 | COc1ccc2ncc(S(=O)(=O)c3ccc(OC)c(Cl)c3)c(N3CCOCC3)c2c1 [Compound 277]
> 500 | COc1ccc2ncc(S(=O)(=O)c3ccc(Cl)c(Cl)c3)c(N3CCOCC3)c2c1 [Compound 278]
< 200 | O=S(=O)(c1ccccc1)c1cnc2ccc(F)cc2c1N1CCOCC1 [Compound 279]
> 500 | O=S(=O)(c1cc(Cl)cc(Cl)c1)c1cnc2ccc(F)cc2c1N1CCOCC1 [Compound 280]
> 500 | N#Cc1cccc(S(=O)(=O)c2cnc3ccc(F)cc3c2N2CCOCC2)c1 [Compound 281]
> 500 | COc1ccc(S(=O)(=O)c2cnc3ccc(F)cc3c2N2CCOCC2)cc1 [Compound 282]
